# In US9951052B2, “Inhibitors of the renal outer medullary potassium channel” (Merck Sharp & Dohme Corp., priority 2013, dated 2018):
# Molecular target: T1, hROMK (hKir1.1) (Homo sapiens, UniProt P48048)
# T1 construct: expressed in transfected cells
# T1 sequence (P48048 1-391): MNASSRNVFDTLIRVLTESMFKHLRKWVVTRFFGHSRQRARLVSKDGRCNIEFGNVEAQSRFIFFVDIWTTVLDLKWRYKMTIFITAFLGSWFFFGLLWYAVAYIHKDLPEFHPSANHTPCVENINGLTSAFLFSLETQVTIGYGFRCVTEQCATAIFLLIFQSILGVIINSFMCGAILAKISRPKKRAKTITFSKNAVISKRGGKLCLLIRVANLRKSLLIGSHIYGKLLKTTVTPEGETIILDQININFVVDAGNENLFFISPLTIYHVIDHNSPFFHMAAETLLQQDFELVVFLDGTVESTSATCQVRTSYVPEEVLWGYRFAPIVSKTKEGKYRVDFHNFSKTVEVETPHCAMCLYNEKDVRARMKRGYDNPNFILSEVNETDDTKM
# Assay: Thallium Flux Assay (ROMK channel functional thallium flux, FLIPR-Tetra)
# Type: cell-based
# Conditions: HEK293 cells stably expressing hROMK (hKir1.1); 30 min incubation with compound; HCl salt run where final product was an HCl salt
# Method: The following Thallium Flux Assay was performed on each of the final product compounds in the Examples. When the final product of an Example was an HCl salt, the salt was run in the Assay.
# Cell Culture Conditions—HEK293 cells stably expressing hROMK (hKir1.1) were grown at 37° C. in a 10% CO2 humidified incubator in complete growth media: Dulbecco's Modified Eagle Medium supplemented with non-essential amino acids, Penicillin/Streptomycin/Glutamine, G418 and FBS. At >80% confluency, aspirate the media from the flask and rinse with 10 mL Calcium/Magnesium-free PBS. Add 5 mL of 1× trypsin (prepared in Ca/Mg Free PBS) to T-225 flask and return flask to 37° C./CO2 incubator for 2-3 minutes. To dislodge the cell, gently bang the side of the flask with your hand. Triturate the cells completely and then transfer the cells to 25 mL complete media. Centrifuge at 1,500 rpm for 6 min followed by resuspension in complete growth media and determine cell concentration. For typical re-seeding, 4E6 cells/T-225 flask will attain >80% confluency in 4 days. Under ideal growth conditions and appropriate tissue culture practices, this cell line is stable for 40-45 passages.
# FluxOR Kit Components (Invitrogen F10017)
# • FluxOR™ Reagent (Component A) • FluxOR™ Assay Buffer (Component B)—10× Concentrate • PowerLoad™ Concentrate (Component C)—100× Concentrate • Probenecid (Component D)—Lyophilized sample is kept at −20° C. Water soluble, 100× after solubilization in 1 mL water. Store at 4° C. • FluxOR™ Chloride-free Buffer (Component E)—5× Concentrate • Potassium sulfate (K2SO4) Concentrate (Component F)—125 mM in water. Store at 4° C. • Thallium sulfate (T12SO4) Concentrate (Component G)—50 mM in water. Store at 4° C. • DMSO (dimethyl sulfoxide, Component H)—1 mL (100%) Reagent Preparation: FluxOR Working Solutions • 1000× FluxOR™ Reagent: Reconstitute a vial of component A in 100 μl DMSO; Mix well; Store 10 μl aliquots at −20° C. • 1× FluxOR™ Assay Buffer: Dilute Component B 10-fold with water; Adjust pH to 7.4 with Hepes/NaOH; Filter and store at 4° C. • Probenecid/Assay Buffer: 100 mL of 1× FluxOR™ Assay Buffer; 1 mL of reconstituted component D; Store at 4° C. • Loading Buffer (per microplate): 10 μl 1000× FluxOR™ Reagent; 100 μl component C; 10 mL Probenecid/Assay Buffer • Compound Buffer (per microplate): 20 mL Probenecid/Assay Buffer; 0.3 mM ouabain (10 mM ouabain in water can be stored in amber bottle/aluminum foil at room temperature); Test compound • 1× FluxOR™ Chloride-Free Buffer: Prepare 1× working solution in water. Can be stored at room temperature • Stimulant Buffer (prepared at 5× final concentration in 1× FluxOR™ Chloride-Free Buffer): 7.5 mM Thallium sulfate and 0.75 mM Potassium sulfate (to give a final assay concentration of 3 mM Thallium/0.3 mM Potassium). Store at 4° C. when not in use.
# Assay protocol—The ROMK channel functional thallium flux assay is performed in 384 wells, using the FLIPR-Tetra instrument. HEK-hKir1.1 cells are seeded in Poly-D-Lysine microplates and kept in a 37° C.-10% CO2 incubator overnight. On the day of the experiment, the growth media is replaced with the FluxOR™ reagent loading buffer and incubated, protected from light, at ambient temperature (23-25° C.) for 90 min. The loading buffer is replaced with assay buffer±test compound followed by 30 min incubation at ambient temperature, where the Thallium/Potassium stimulant is added to the microplate.
# • 1. Seed HEK-hKir1.1 cells (50 μl at 20,000 cells/well) in 384-well PDL coated Microplates • 2. Allow cells to adhere overnight in humidified 37° C./10% CO2 incubator • 3. Completely remove cell growth media from microplate and replace with 25 μl loading buffer • 4. Incubate Microplate at room temperature, protected from light, for 90 min • 5. Remove loading buffer and replace with 25 μl 1× Assay Buffer±test compound. • 6. Incubate microplate at room temperature, protected from light, for 30 min • 7. […]
row,SMILES,IC50
1,"Cc1c(C(O)CN2CCC(O)(C(=O)Nc3ccc(C#N)cn3)CC2)ccc2c1COC2=O (stereo in doubt) [Example 37, (R)-N-(5-cyanopyridin-2-yl)-4-hydroxy-1-(2-hydroxy-2-(4-methyl-1-oxo-1,3-dihydroisobenzofuran-5-yl)ethyl)piperidine-4-carboxamide]",470 nM
2,"COc1nsc(NC(=O)C2CCN(C[C@H](O)c3ccc4c(c3C)COC4=O)CC2)n1 [Example 1, (R)-1-(2-Hydroxy-2-(4-methyl-1-oxo-1,3-dihydroisobenzofuran-5-yl)ethyl)-N-(3-methoxy-1,2,4-thiadiazol-5-yl)piperidine-4-carboxamide]",170 nM
3,"Cc1ccc(C#N)cc1NC(=O)C1CCN(CCc2ccc3c(c2C)COC3=O)CC1 [Example 2, N-(5-cyano-2-methylphenyl)-1-(2-(4-methyl-1-oxo-1,3-dihydroisobenzofuran-5-yl)ethyl)piperidine-4-carboxamide]",460 nM
4,"Cc1c(CCN2CCC(C(=O)Nc3ccc(C#N)cc3)CC2)ccc2c1COC2=O [Example 3, N-(4-cyanophenyl)-1-(2-(4-methyl-1-oxo-1,3-dihydroisobenzofuran-5-yl)ethyl)piperidine-4-carboxamide]",140 nM
5,"Cc1c(CCN2CCC(C(=O)Nc3ccc(C#N)nc3)CC2)ccc2c1COC2=O [Example 4, N-(6-cyanopyridin-3-yl)-1-(2-(4-methyl-1-oxo-1,3-dihydroisobenzofuran-5-yl)ethyl)piperidine-4-carboxamide]",210 nM
6,"Cc1cc(C#N)ccc1NC(=O)C1CCN(CCc2ccc3c(c2C)COC3=O)CC1 [Example 8, N-(4-cyano-2-methylphenyl)-1-(2-(4-methyl-1-oxo-1,3-dihydroisobenzofuran-5-yl)ethyl)piperidine-4-carboxamide]",100 nM
7,"Cc1c(CCN2CCC(C(=O)Nc3cc(C#N)ccc3F)CC2)ccc2c1COC2=O [Example 9, N-(5-cyano-2-fluorophenyl)-1-(2-(4-methyl-1-oxo-1,3-dihydroisobenzofuran-5-yl)ethyl)piperidine-4-carboxamide]",250 nM
8,"Cc1c(CCN2CCC(C(=O)Nc3ccc4nonc4c3)CC2)ccc2c1COC2=O [Example 11, N-(benzo[c][1,2,5]oxadiazol-5-yl)-1-(2-(4-methyl-1-oxo-1,3-dihydroisobenzofuran-5-yl)ethyl)piperidine-4-carboxamide]",210 nM
9,"N#Cc1cc(F)c(NC(=O)C2CCN(CCc3ccc4c(c3)COC4=O)CC2)cc1F [Example 14, N-(4-cyano-2,5-difluorophenyl)-1-(2-(1-oxo-1,3-dihydroisobenzofuran-5-yl)ethyl)piperidine-4-carboxamide]",140 nM
10,"N#Cc1ccc(NC(=O)C2CCN(CCc3ccc4c(c3)COC4=O)CC2)c(OC(F)(F)F)c1 [Example 15, N-(4-cyano-2-(trifluoromethoxy)phenyl)-1-(2-(1-oxo-1,3-dihydroisobenzofuran-5-yl)ethyl)piperidine-4-carboxamide]",180 nM
11,"N#Cc1cc(NC(=O)C2CCN(CCc3ccc4c(c3)COC4=O)CC2)ccc1Cl [Example 16, N-(4-chloro-3-cyanophenyl)-1-(2-(1-oxo-1,3-dihydroisobenzofuran-5-yl)ethyl)piperidine-4-carboxamide]",260 nM
12,"N#Cc1cc(NC(=O)C2CCN(CCc3ccc4c(c3)COC4=O)CC2)ccc1F [Example 17, N-(3-cyano-4-fluorophenyl)-1-(2-(1-oxo-1,3-dihydroisobenzofuran-5-yl)ethyl)piperidine-4-carboxamide]",410 nM
13,"O=C1OCc2cc(CCN3CCC(C(=O)Nc4ccc5cn[nH]c5c4)CC3)ccc21 [Example 18, N-(1H-indazol-6-yl)-1-(2-(1-oxo-1,3-dihydroisobenzofuran-5-yl)ethyl)piperidine-4-carboxamide]",510 nM
14,"O=C1OCc2cc(CCN3CCC(C(=O)Nc4ccc5[nH]nnc5c4)CC3)ccc21 [Example 19, N-(1H-benzo[d][1,2,3]triazol-5-yl)-1-(2-(1-oxo-1,3-dihydroisobenzofuran-5-yl)ethyl)piperidine-4-carboxamide]",440 nM
15,"O=C1OCc2cc(CCN3CCC(C(=O)Nc4ccc5sncc5c4)CC3)ccc21 [Example 20, N-(benzo[d]isothiazol-5-yl)-1-(2-(1-oxo-1,3-dihydroisobenzofuran-5-yl)ethyl)piperidine-4-carboxamide]",470 nM
16,"N#Cc1cc(NC(=O)C2CCN(CCc3ccc4c(c3)COC4=O)CC2)n(-c2ccc(F)cc2)c1 [Example 21, N-(4-cyano-1-(4-fluorophenyl)-1H-pyrrol-2-yl)-1-(2-(1-oxo-1,3-dihydroisobenzofuran-5-yl)ethyl)piperidine-4-carboxamide]",410 nM

# The next lines start with the values.
row,IC50,SMILES
1,30 nM,"Cc1c(CCN2CCC(C(=O)Nc3ccc(C#N)c(F)c3)CC2)ccc2c1COC2=O [Example 5, N-(4-cyano-3-fluorophenyl)-1-(2-(4-methyl-1-oxo-1,3-dihydroisobenzofuran-5-yl)ethyl)piperidine-4-carboxamide]"
2,70 nM,"Cc1c(CCN2CCC(C(=O)Nc3ccc(C#N)c4ccccc34)CC2)ccc2c1COC2=O [Example 6, N-(4-cyanonaphthalen-1-yl)-1-(2-(4-methyl-1-oxo-1,3-dihydroisobenzofuran-5-yl)ethyl)piperidine-4-carboxamide]"
3,100 nM,"Cc1nc(NC(=O)C2CCN(CCc3ccc4c(c3C)COC4=O)CC2)ccc1C#N [Example 7, N-(5-cyano-6-methylpyridin-2-yl)-1-(2-(4-methyl-1-oxo-1,3-dihydroisobenzofuran-5-yl)ethyl)piperidine-4-carboxamide]"
4,10 nM,"Cc1c(CCN2CCC(C(=O)Nc3ccc4c(c3)COC4=O)CC2)ccc2c1COC2=O [Example 10, 1-(2-(4-methyl-1-oxo-1,3-dihydroisobenzofuran-5-yl)ethyl)-N-(1-oxo-1,3-dihydroisobenzofuran-5-yl)piperidine-4-carboxamide]"
5,30 nM,"CCOc1cc(NC(=O)C2CCN(CCc3ccc4c(c3)COC4=O)CC2)ccc1C#N [Example 12, N-(4-cyano-3-ethoxyphenyl)-1-[2-(1-oxo-1,3-dihydro-2-benzofuran-5-yl)ethyl]piperidine-4-carboxamide]"
6,30 nM,"COc1cc(NC(=O)C2CCN(CCc3ccc4c(c3)COC4=O)CC2)ccc1C#N [Example 13, N-(4-cyano-3-methoxyphenyl)-1-(2-(1-oxo-1,3-dihydroisobenzofuran-5-yl)ethyl)piperidine-4-carboxamide]"
7,40 nM,"Cc1c([C@@H](O)CN2CCC(C(=O)Nc3ccns3)CC2)ccc2c1COC2=O [Example 22, 1-[(2R)-2-hydroxy-2-(4-methyl-1-oxo-1,3-dihydro-2-benzofuran-5-yl)ethyl]-N-(isothiazol-5-yl)piperidine-4-carboxamide]"
